# Data as given in US7501281B2, “Compositions, methods and kits related to thrombin, Notch signaling and stamatogenesis and growth of stem cells” (Maine Medical Center Research Institute, priority 2003, dated 2009).
# What was measured:
# [1] = system: FGF1R136K NIH 3T3 cell transfectants; test: Thrombin stimulation and immunoblot analysis of FGF1 release; type: cell-based, murine
# Procedure: FGF1R136K NIH 3T3 cell transfectants or adenovirally-transduced NIH 3T3 cells were washed with DMEM containing 5 units/ml of heparin (Sigma) and stimulated with either 10 μg/ml α-thrombin (a gift from Dr. J. Fenton) or 5 μM TRAP (Sigma) at 37° C. for different periods of time. Control cells were incubated in the absence of thrombin for the same time period. Conditioned media were collected at each time period, filtered, and concentrated as previously described (Jackson et al., 1992, Proc. Natl. Acad. Sci. U.S.A. 89:10691-10695). The concentrates were resolved by SDS-PAGE and subjected to immunoblot analysis using a rabbit antibody against either FGF1 (Jackson et al., 1992), Syt1 (LaVallee et al.,1998, J. Biol. Chem. 273:22217-22223) or Myc (Oncogene). The heat shock-induced release of FGF1 was performed at 42° C. for 110 minutes as previously described (Jackson et al., 1992). Cell viability was assessed by measuring lactate dehydrogenase activity in the conditioned medium after filtration as disclosed previously elsewhere herein (published as Mandinova et al., 2003, J. Cell Sci. 116:2687-2696), and total cell lysates were obtained and processed for immunoblot analysis as described (Landriscina et al., 2001, J. Biol. Chem. 276:22544-22552).
# Stable FGF1R136K NIH 3T3 cell transfectants were pre-incubated with either 100 ng/ml pertussis toxin (PTX) or 10 ng/ml cholera toxin (CT) for 60 minutes at 37° C. in DMEM containing 10% BCS. After pre-incubation, the cells were washed, stimulated with 10 μg/ml of thrombin for different periods of time in the presence of either 100 ng/ml PTX or 10 ng/ml CT, conditioned medium collected, and subjected to immunoblot analysis as described above.
# Since FGF1 is known to be susceptible to thrombin cleavage at residue 136 (Erzurum et al., 2003, J. Vasc. Surg. 37:1075-1081), a thrombin-resistant FGF1 mutant (FGF1R136K; described in International Patent Publication No. WO03/052378, which is incorporated by reference in its entirety herein) was used and stable FGF1R136K NIH 3T3 cell transfectants were produced.
# [2] = system: PAR1 null cells adenovirally-transduced with the FGF1R136K mutant; test: Immunoblot analysis of FGF1 release in PAR1 null cells; type: cell-based, mouse; details: 10 μg/ml α-thrombin
# NSC populations = test: Clonal expansion of NSC on NIH 3T3 transfectant feeder layer; type: cell-based
# NCSC populations = test: GFAP immunoreactivity as onset of glial-specific clonogenic differentiation; type: cell-based, murine
# Procedure: FIG. 12A depicts an RT-PCR analysis of FGF1.A mRNA expression. Briefly, populations of murine NCSC were treated for 48 hours in Morrison media supplemented with either 7.5 nM sJ1, 5.0 nM sDl1, 10 μg/ml of α-thrombin or 5 μg/ml TRAP, and the steady-state levels of the FGF1.A mRNA were measured using RT-PCR as described elsewhere herein. […] Clonogenic differentiation assays of murine NCSC populations were assessed by maintaining the cells in Morrison media supplemented with increasing concentrations of either sJ1 or sDl1. […] Clonogenic differentiation assays of NCSC populations was assessed by maintaining the cells in Morrison media supplemented with either 7.5 nM sJ1 (▪-▪) or 5 nM sDl1 (▴-▴). The onset of gliogenic differentiation was determined by GFAP immunohistochemistry. […]
# Since sJ1 enabled the retention of NCSC neurogenic potential over a 7 day period of exposure (Table 1), glial fibrillary acidic protein (GFAP) immunoreactivity was utilized as a measure of the onset of glial-specific clonogenic differentiation (Morrison et al., 1999, Cell 96:737-749; Stemple et al., 1992, Cell 71:973-985). […] As previously reported (Morrison et al., 2000, Cell 101:499-510), after 48 hours of exposure to sDl1, GFAP immunoreactive cells were detected in NCSC populations (FIG. 12C). […]
# [3] = system: HEY and Deltex transcripts in NCSC populations; test: RT-PCR analyses of Notch down-stream effectors; type: cell-based
# Excerpt: It is also interesting that sJ1 and sDl1 induce distinctive phenotypic outcomes. Whereas sJ1:Notch interactions enable stamatogenesis, sDl1:Notch associations lead to an immediate loss of neurogenic potential. […] Likewise, Delta1, but not Jagged1, is able to promote the in vitro development of human cord blood-derived progenitor cells with a T cell/natural killer cell phenotype (Jaleco et al., 2001, J. Exp. Med. 194:991-1002), and sJ1 is able to promote the clonal expansion of hematopoietic stem cells in vitro (Vas et al., 2004, J. Leukoc. Biol., in press). […] Thus, it appears that sJ1 and sDl1 induce different cell fate decisions in NCSC populations. […] Thus, without wishing to be bound by any particular theory, the levels of Notch signaling may be paramount in regulating the undifferentiated expansion of multipotential neural stem cells, and thrombin and/or sJ1, may be one of the key elements in this process that enable stamatogenesis to occur.
Molecule,export of FGF2 [1],concentration giving maximal response of FGF1R136K release ([1]; 37° C.),"export of S100A13 ([1]; 37° C., cells co-expressing S100A13 and FGF1R136K)","release of the FGF1R136K mutant into the extracellular compartment ([1]; 37° C., 10 μg/ml α-thrombin or 5 μM TRAP)",time to maximum levels of FGF-1 release after contact ([1]; FGF-1-NIH 3T3 transfectants),release of the FGF1R136K mutant from cells with elevated Notch1 signaling ([1]; cells adenovirally transduced with caN1),export of p40 Syt1 ([1]; p40 Syt1 adenovirally transduced),export of the FGF1R136K mutant [2],effect on size of NSC colonies (NSC populations; full-length Delta1 NIH 3T3 cell transfectant feeder layer),"effect on size of NSC colonies (NSC populations; full-length Jagged1 NIH 3T3 cell transfectant feeder layer, 5 μg/ml thrombin)",percentage of the colony expressing the glial-specific protein GFAP (NCSC populations; day 7),steady-state levels of HEY and Deltex transcripts [3],time of exposure at which GFAP immunoreactive cells were detected (NCSC populations)
Thrombin,unable to induce,10 µg/mL,presence of S100A13 in the extracellular compartment,rapid and sustained appearance,one,unable to initiate the release,presence of p40 Syt1 in the extracellular compartment,unable to induce the export,failed to induce,exaggeration of the size of the NSC colonies,,,
"sJ1: Soluble Jagged1, amino acid residues from about 1 to 1067 (SEQ ID NO:3) of full-length Jagged1",,,,,,,,,,,23±5%,suppression,
"sDl1: soluble non-transmembrane form of the Notch ligand Delta1 (protein, left off: small tags and cut ends, soluble non-transmembrane form of the Notch ligand Delta1) QVWSSGVFELKLQEFVNKKGLLGNRNCCRGGAGPPPCACRTFFRVCLKHYQASVSPEPPCTYGSAVTPVLGVDSFSLPDGGGADSAFSNPIRFPFGFTWPGTFSLIIEALHTDSPDDLATENPERLISRLATQRHLTVGEEWSQDLHSSGRTDLKYSYRFVCDEHYYGEGCSVFCRPRDDAFGHFTCGERGEKVCNPGWKGPYCTEPICLPGCDEQHGFCDKPGECKCRVGWQGRYCDECIRYPGCLHGTCQQPWQCNCQEGWGGLFCNQDLNYCTHHKPCKNGATCTNTGQGSYTCSCRPGYTGATCELGIDECDPSPCKNGGSCTDLENSYSCTCPPGFYGKICELSAMTCADGPCFNGGRCSDSPDGGYSCRCPVGYSGFNCEKKIDYCSSSPCSNGAKCVDLGDAYLCRCQAGFSGRHCDDNVDDCASSPCANGGTCRDGVNDFSCTCPPGYTGRNCSAPVSRCEHAPCHNGATCHERGHRYVCECARGYGGPNCQFLLPELPPGPAVVDLTEKLEGQGGPFPW",,,,,,,,,,,,not,48 h
